Assay: xn = mol fraction of the nth substance listed
Conditions: Liquid

CCCCO [butan-1-ol] + O=C=O
Conditions | mass density [kg/m3]
352.82 K, 13001 kPa, x2 = 0.1842 | 780.49
352.82 K, 14050 kPa, x2 = 0.1842 | 781.67
352.82 K, 15000 kPa, x2 = 0.1842 | 782.72
352.82 K, 15999 kPa, x2 = 0.1842 | 783.84
352.82 K, 17008 kPa, x2 = 0.1842 | 784.88
352.82 K, 18066 kPa, x2 = 0.1842 | 786.01
352.82 K, 19002 kPa, x2 = 0.1842 | 787.01
352.82 K, 20015 kPa, x2 = 0.1842 | 788.03
352.82 K, 21043 kPa, x2 = 0.1842 | 789.11
352.82 K, 22025 kPa, x2 = 0.1842 | 790.1
352.82 K, 23024 kPa, x2 = 0.1842 | 791.11
352.82 K, 24015 kPa, x2 = 0.1842 | 792.1
352.82 K, 25100 kPa, x2 = 0.1842 | 793.18
352.83 K, 2007 kPa, x2 = 0.0857 | 766.96
352.83 K, 3023 kPa, x2 = 0.0857 | 768.13
352.83 K, 3953 kPa, x2 = 0.0857 | 769.18
352.83 K, 5008 kPa, x2 = 0.0857 | 770.34
352.83 K, 5991 kPa, x2 = 0.0857 | 771.43
352.83 K, 7011 kPa, x2 = 0.0857 | 772.54
352.83 K, 7992 kPa, x2 = 0.0857 | 773.57
352.83 K, 9016 kPa, x2 = 0.0857 | 774.63
352.83 K, 10033 kPa, x2 = 0.0857 | 775.71
352.83 K, 10983 kPa, x2 = 0.0857 | 776.62
352.83 K, 12020 kPa, x2 = 0.0857 | 777.74
352.83 K, 13038 kPa, x2 = 0.0857 | 778.75
352.83 K, 13990 kPa, x2 = 0.0857 | 779.64
352.83 K, 14986 kPa, x2 = 0.0857 | 780.63
352.83 K, 16028 kPa, x2 = 0.0857 | 781.61
352.83 K, 16995 kPa, x2 = 0.0857 | 782.54
352.83 K, 17994 kPa, x2 = 0.0857 | 783.45
352.83 K, 18991 kPa, x2 = 0.0857 | 784.4
352.83 K, 20014 kPa, x2 = 0.0857 | 785.33
352.83 K, 21017 kPa, x2 = 0.0857 | 786.18
352.83 K, 21993 kPa, x2 = 0.0857 | 787.09
352.83 K, 23041 kPa, x2 = 0.0857 | 788.01
352.83 K, 24037 kPa, x2 = 0.0857 | 788.92
352.83 K, 25058 kPa, x2 = 0.0857 | 789.81
352.85 K, 13091 kPa, x2 = 0.4972 | 783.81
352.85 K, 13958 kPa, x2 = 0.4972 | 785.52
352.85 K, 15066 kPa, x2 = 0.4972 | 787.67
352.85 K, 16029 kPa, x2 = 0.4972 | 789.49
352.85 K, 17077 kPa, x2 = 0.4972 | 791.44
352.85 K, 18031 kPa, x2 = 0.4972 | 793.15
352.85 K, 19033 kPa, x2 = 0.4972 | 794.93
352.85 K, 20018 kPa, x2 = 0.4972 | 796.63
352.85 K, 21055 kPa, x2 = 0.4972 | 798.4
352.85 K, 22035 kPa, x2 = 0.4972 | 800
352.85 K, 23067 kPa, x2 = 0.4972 | 801.7
352.85 K, 24007 kPa, x2 = 0.4972 | 803.18
352.85 K, 25035 kPa, x2 = 0.4972 | 804.81
352.88 K, 14075 kPa, x2 = 0.5965 | 780.49
352.88 K, 15042 kPa, x2 = 0.5965 | 783.18
352.88 K, 16039 kPa, x2 = 0.5965 | 785.88
352.88 K, 17076 kPa, x2 = 0.5965 | 788.55
352.88 K, 18030 kPa, x2 = 0.5965 | 790.96
352.88 K, 18449 kPa, x2 = 0.8663 | 712.26
352.88 K, 19037 kPa, x2 = 0.5965 | 793.41
352.88 K, 19044 kPa, x2 = 0.8663 | 719.05
352.88 K, 20049 kPa, x2 = 0.5965 | 795.8
352.88 K, 20064 kPa, x2 = 0.8663 | 729.73
352.88 K, 21030 kPa, x2 = 0.5965 | 798.05
352.88 K, 21052 kPa, x2 = 0.8663 | 739.04
352.88 K, 22036 kPa, x2 = 0.5965 | 800.27
352.88 K, 22047 kPa, x2 = 0.8663 | 747.62
352.88 K, 23019 kPa, x2 = 0.5965 | 802.43
352.88 K, 23067 kPa, x2 = 0.8663 | 755.76
352.88 K, 24035 kPa, x2 = 0.8663 | 762.91
352.88 K, 24039 kPa, x2 = 0.5965 | 804.6
352.88 K, 25048 kPa, x2 = 0.8663 | 769.99
352.88 K, 25092 kPa, x2 = 0.5965 | 806.79
362.66 K, 20602 kPa, x2 = 0.9698 | 595.03
362.66 K, 21041 kPa, x2 = 0.9698 | 604.05
362.66 K, 22017 kPa, x2 = 0.9698 | 622.53
362.66 K, 23022 kPa, x2 = 0.9698 | 639.79
362.66 K, 24038 kPa, x2 = 0.9698 | 655.56
362.66 K, 25046 kPa, x2 = 0.9698 | 669.85
362.67 K, 1053 kPa, x2 = 0.0251 | 755.01
362.67 K, 2066 kPa, x2 = 0.0251 | 756.19
362.67 K, 3045 kPa, x2 = 0.0251 | 757.27
362.67 K, 4013 kPa, x2 = 0.0251 | 758.36
362.67 K, 5068 kPa, x2 = 0.0251 | 759.49
362.67 K, 6009 kPa, x2 = 0.0251 | 760.49
362.67 K, 6988 kPa, x2 = 0.0251 | 761.58
362.67 K, 7985 kPa, x2 = 0.0251 | 762.59
362.67 K, 9006 kPa, x2 = 0.0251 | 763.64
362.67 K, 10031 kPa, x2 = 0.0251 | 764.7
362.67 K, 11027 kPa, x2 = 0.0251 | 765.69
362.67 K, 12000 kPa, x2 = 0.0251 | 766.65
362.67 K, 13054 kPa, x2 = 0.0251 | 767.68
362.67 K, 14008 kPa, x2 = 0.0251 | 768.61
362.67 K, 14993 kPa, x2 = 0.0251 | 769.57
362.67 K, 16000 kPa, x2 = 0.0251 | 770.52
362.67 K, 17046 kPa, x2 = 0.0251 | 771.48
362.67 K, 17989 kPa, x2 = 0.0251 | 772.34
362.67 K, 19009 kPa, x2 = 0.0251 | 773.27
362.67 K, 20045 kPa, x2 = 0.0251 | 774.19
362.67 K, 21017 kPa, x2 = 0.0251 | 775.08
362.67 K, 22075 kPa, x2 = 0.0251 | 775.99
362.67 K, 23006 kPa, x2 = 0.0251 | 776.82
362.67 K, 24007 kPa, x2 = 0.0251 | 777.69
362.67 K, 25062 kPa, x2 = 0.0251 | 778.61
362.69 K, 2045 kPa, x2 = 0.0857 | 757.33
362.69 K, 3006 kPa, x2 = 0.0857 | 758.53
362.69 K, 3982 kPa, x2 = 0.0857 | 759.72
362.69 K, 5010 kPa, x2 = 0.0857 | 760.91
362.69 K, 5976 kPa, x2 = 0.0857 | 762.09
362.69 K, 6994 kPa, x2 = 0.0857 | 763.25
362.69 K, 7999 kPa, x2 = 0.0857 | 764.42
362.69 K, 8998 kPa, x2 = 0.0857 | 765.51
362.69 K, 10048 kPa, x2 = 0.0857 | 766.67
362.69 K, 11028 kPa, x2 = 0.0857 | 767.74
362.69 K, 11999 kPa, x2 = 0.0857 | 768.75
362.69 K, 12994 kPa, x2 = 0.0857 | 769.85
362.69 K, 14018 kPa, x2 = 0.0857 | 770.91
362.69 K, 15014 kPa, x2 = 0.0857 | 771.91
362.69 K, 15995 kPa, x2 = 0.0857 | 772.93
362.69 K, 17061 kPa, x2 = 0.0857 | 773.98
362.69 K, 18008 kPa, x2 = 0.0857 | 774.96
362.69 K, 19008 kPa, x2 = 0.0857 | 775.88
362.69 K, 20060 kPa, x2 = 0.0857 | 776.81
362.69 K, 21044 kPa, x2 = 0.0857 | 777.83
362.69 K, 22045 kPa, x2 = 0.0857 | 778.82
362.69 K, 23036 kPa, x2 = 0.0857 | 779.68
362.69 K, 24037 kPa, x2 = 0.0857 | 780.65
362.69 K, 25015 kPa, x2 = 0.0857 | 781.57
362.74 K, 14112 kPa, x2 = 0.4972 | 771.83
362.74 K, 15096 kPa, x2 = 0.4972 | 773.91
362.74 K, 15985 kPa, x2 = 0.4972 | 775.76
362.74 K, 17043 kPa, x2 = 0.4972 | 777.9
362.74 K, 18079 kPa, x2 = 0.4972 | 779.94
362.74 K, 19117 kPa, x2 = 0.4972 | 781.94
362.74 K, 20051 kPa, x2 = 0.4972 | 783.68
362.74 K, 21025 kPa, x2 = 0.4972 | 785.45
362.74 K, 22018 kPa, x2 = 0.4972 | 787.27
362.74 K, 23076 kPa, x2 = 0.4972 | 789.13
362.74 K, 24063 kPa, x2 = 0.4972 | 790.85
362.74 K, 25140 kPa, x2 = 0.4972 | 792.64
362.75 K, 21992 kPa, x2 = 0.8663 | 710.63
362.75 K, 23010 kPa, x2 = 0.8663 | 720.36
362.75 K, 24074 kPa, x2 = 0.8663 | 729.68
362.75 K, 25130 kPa, x2 = 0.8663 | 738.23
362.76 K, 15085 kPa, x2 = 0.5965 | 765.37
362.76 K, 16042 kPa, x2 = 0.5965 | 768.34
362.76 K, 17060 kPa, x2 = 0.5965 | 771.36
362.76 K, 18019 kPa, x2 = 0.5965 | 774.09
362.76 K, 19023 kPa, x2 = 0.5965 | 776.91
362.76 K, 20064 kPa, x2 = 0.5965 | 779.68
362.76 K, 21026 kPa, x2 = 0.5965 | 782.15
362.76 K, 22023 kPa, x2 = 0.5965 | 784.67
362.76 K, 23058 kPa, x2 = 0.5965 | 787.18
362.76 K, 24078 kPa, x2 = 0.5965 | 789.61
362.76 K, 25110 kPa, x2 = 0.5965 | 791.98
362.78 K, 6018 kPa, x2 = 0.1842 | 761.83
362.78 K, 6995 kPa, x2 = 0.1842 | 763.16
362.78 K, 8099 kPa, x2 = 0.1842 | 764.64
362.78 K, 9002 kPa, x2 = 0.1842 | 765.81
362.78 K, 10022 kPa, x2 = 0.1842 | 767.06
362.78 K, 10995 kPa, x2 = 0.1842 | 768.34
362.78 K, 12059 kPa, x2 = 0.1842 | 769.68
362.78 K, 13056 kPa, x2 = 0.1842 | 770.87
362.78 K, 14029 kPa, x2 = 0.1842 | 772.05
362.78 K, 15026 kPa, x2 = 0.1842 | 773.24
362.78 K, 16010 kPa, x2 = 0.1842 | 774.38
362.78 K, 17020 kPa, x2 = 0.1842 | 775.53
362.78 K, 18041 kPa, x2 = 0.1842 | 776.68
362.78 K, 19031 kPa, x2 = 0.1842 | 777.79
362.78 K, 20045 kPa, x2 = 0.1842 | 778.9

From the NIST ThermoML archive (doi:10.1021/je700261b)
